Data from patent US20220333108A1, “COMBINATIONS OF SIRNAS WITH SIRNAS AGAINST SULF2 OR GPC3 FOR USE IN TREATING CANCER” (Sirnaomics, Inc., priority 2021, published 2022).

Tested on: HepG2 cells
Assay: Sulf2 silencing and Sorafenib in liver cancer cell model
Type: cell-based
Settings: Homo sapiens, Sorafenib exposure 72 h, read-out: IC50 in inhibiting tumor growth (Sorafenib)
Procedure: The effect of Sulf2 silencing in combination with Sorafenib in a liver cancer cell model (HepG2 cells) was studied. HepG2 cells incubated with various concentrations of SULF2_1 siRNA for 96 h, and Sorafenib (404) was added after 24 h to allow exposure for 72 h.

IC50: ~4 µM
SMILES: CNC(=O)c1cc(Oc2ccc(NC(=O)Nc3ccc(Cl)c(C(F)(F)F)c3)cc2)ccn1 [Sorafenib, sorafenib]
